Measured values taken from patent publication US11090313B2, “Methods for inhibiting muscle atrophy” (UNIVERSITY OF IOWA RESEARCH FOUNDATION, priority 2010, dated 2021).
Entries after “also recorded” stand apart in the source; their conditions may differ.

How the values were obtained:
Type in all cases: in vivo, mouse
[1] = system: C57BL/6 mice; test: Fasting-induced muscle atrophy in mice (i.p. dosing, 24 h fast); conditions: for skeletal muscle weight in fasted mice (fasting-induced muscle atrophy) / fasting blood glucose: i.p. at 0 and 12 h of 24 h fast; for skeletal muscle weight in fasted mice (fasting-induced muscle atrophy): vs vehicle, mg/kg: ursolic acid 200, oleanolic acid 200, metformin 250, tomatidine 50, allantoin 2, tacrine 4, ungerine 2, hippeastrine 2, conessine 2; for fasting blood glucose: mice, mg/kg: metformin 250, ursolic acid 200, hippeastrine 2, conessine 2
Method: The mice were then fasted, and after 12 hours of fasting, the mice received a second dose of the compound or vehicle. After 24 hours of fasting, the blood glucose was measured and muscles were harvested. The data shown in FIGS. 6C-6H are means±SEM from ≤16 mice per condition. […] The effects of metformin and ursolic acid on fasting-induced muscle atrophy were also examined, i.e. the effect of 24 h fast (relative to ad lib feeding) on wet weight of lower hindlimb skeletal muscle (bilateral tibialis anterior (“TA” muscle), gastrocnemius, and soleus; see FIGS. 6E-6G). […] In FIGS. 6E-6H, each data point represents one mouse and the horizontal bars denote the means. In FIGS. 6C-6H, P-values were determined using unpaired t-tests.
Mice were then fasted, and after 12 hours of fasting, mice received a second dose of ursolic acid, oleanolic acid, or vehicle. After 24 hours of fasting, lower hindlimb skeletal muscles and liver were harvested and weighed.
To test this, food was withdrawn from mice, and then vehicle, ursolic acid (200 mg/kg) or tomatidine (50 mg/kg) were administered by i.p. injection. Twelve hours later, mice received another i.p. injection of vehicle or the same dose of ursolic acid or tomatidine. Twelve hours later, skeletal muscles were harvested and weighed. […] We next used the same protocol to compare the effects of vehicle (corn oil) and tomatidine (5, 15 and 50 mg/kg).

[2] = system: mice; test: Immobilization-induced skeletal muscle atrophy model (stapled tibialis anterior); conditions: for immobilization-induced muscle atrophy (weights of immobile vs mobile TA): 2 days before and 6 days after immobilization, ursolic acid and betulinic acid varying doses, naringenin 200 mg/kg, tomatidine 5-200 mg/kg
Method: To test this, a mouse model of immobilization-induced skeletal muscle atrophy was used: mice were administered vehicle (corn oil) or varying doses of ursolic acid (positive control) or betulinic acid via intraperitoneal injection twice a day for two days. One tibialis anterior (TA) muscle was immobilized with a surgical staple, leaving the contralateral mobile TA as an intra-subject control. The vehicle or the same dose of ursolic acid or betulinic acid was continuously administered via i.p. injection twice daily for six days before comparing weights of the immobile and mobile TAs.
To test this, mice were administered vehicle (corn oil), ursolic acid (200 mg/kg), naringenin (200 mg/kg), or the combination of ursolic acid and naringenin (each at 200 mg/kg) via i.p injection twice a day for two days. One tibialis anterior (TA) muscle was immobilized with a surgical staple, leaving the contralateral mobile TA as an intrasubject control. Vehicle or the same doses of ursolic acid and/or naringenin was continuously administered via i.p. injection twice daily for six days before comparing weights of the immobile and mobile TAs.
To test this, mice were administered vehicle (corn oil) or tomatidine (50, 100 or 200 mg/kg) via i.p injection twice a day for two days. One tibialis anterior (TA) muscle was immobilized with a surgical staple, leaving the contralateral mobile TA as an intrasubject control. Vehicle or the same doses of tomatidine was administered via i.p. injection twice daily for six days before comparing weights of the immobile and mobile TAs. […] The same protocol was used to compare the effects of vehicle (corn oil) and tomatidine (5, 15 or 50 mg/kg) on immobilization-induced muscle atrophy.

[3] = system: mice; test: High fat diet with ursolic acid and/or naringenin; conditions: HFD with ursolic acid 0.15% and/or naringenin 0.5% or 1.5%, 5 weeks
Method: To determine this, weight-matched mice were provided ad libitum access to standard (Harlan Teklad formula 7013), high fat diet (HFD; Harlan Teklad formula TD93075), or HFD containing varying concentrations of ursolic acid (0.15%) and/or naringenin (0.5% or 1.5%). After the mice consumed these diets for 5 weeks, fasting blood glucose, total body weight, fat mass, liver weight, grip strength, and skeletal muscle weight was measured.

Compound | skeletal muscle weight in fasted mice (fasting-induced muscle atrophy) [1] | fasting blood glucose [1] | other results
C[C@H]1[C@H]2CC[C@H]3[C@@H]4CC=C5C[C@@H](N(C)C)CC[C@]5(C)[C@H]4CC[C@]23CN1C [conessine] | increased muscle weight in fasted mice; also recorded: reduce fasting-induced muscle atrophy | reduce fasting blood glucose | –
C[C@H]1CC[C@]2(NC1)O[C@H]1C[C@H]3[C@@H]4CC[C@H]5C[C@@H](O)CC[C@]5(C)[C@H]4CC[C@]3(C)[C@H]1[C@@H]2C [tomatidine] | increased skeletal muscle; also recorded: increased muscle weight in fasted mice; also recorded: reduces fasting-induced muscle atrophy | – | dose of maximal effect on fasting-induced muscle atrophy ([1]; tomatidine 5, 15 and 50 mg/kg i.p. twice, 24 h fast): 50 mg/kg; dose of maximal inhibition of immobilization-induced muscle atrophy ([2]; i.p. twice daily): 50 mg/kg; potency relative to ursolic acid in immobilization-induced muscle atrophy ([2]; i.p. twice daily): more potent than ursolic acid; immobilization-induced muscle atrophy (weights of immobile vs mobile TA) ([2]; i.p. twice daily): reduced muscle atrophy; also recorded: reduces immobilization-induced muscle atrophy; EC50, reduction of immobilization-induced muscle atrophy ([2]; tomatidine 5, 15 or 50 mg/kg i.p. twice daily): < 5 mg/kg
CN(C)C(=N)N=C(N)N [metformin, reference compound] | did not alter muscle weight; also recorded: do not reduce skeletal muscle atrophy | significantly reduced fasting blood glucose | –
Nc1c2c(nc3ccccc13)CCCC2 [tacrine, reference compound] | increased muscle weight in fasted mice; also recorded: reduce fasting-induced muscle atrophy | – | –
CC1(C)CC[C@]2(C(=O)O)CC[C@]3(C)C(=CC[C@@H]4[C@@]5(C)CC[C@H](O)C(C)(C)[C@@H]5CC[C@]43C)[C@@H]2C1 [oleanolic acid, reference compound] | do not reduce skeletal muscle atrophy | – | –
O=C1CC(c2ccc(O)cc2)Oc2cc(O)cc(O)c21 (stereo not drawn) [naringenin] | – | – | immobilization-induced muscle atrophy (weights of immobile vs mobile TA) ([2]; i.p. twice daily): reduced muscle atrophy; also recorded: reduces immobilization-induced skeletal muscle atrophy; fasting blood glucose in high fat fed mice [3]: partially prevented
CN1CCC2=C[C@@H](O)[C@@H]3OC(=O)c4cc5c(cc4[C@@H]3[C@H]21)OCO5 [hippeastrine] | increased muscle weight in fasted mice; also recorded: reduce fasting-induced muscle atrophy | reduce fasting blood glucose | –
NC(=O)NC1NC(=O)NC1=O (stereo not drawn) [allantoin] | increased muscle weight in fasted mice; also recorded: reduce fasting-induced muscle atrophy | – | –
CO[C@@H]1C=C2CCN(C)[C@@H]2[C@H]2c3cc4c(cc3C(=O)O[C@H]21)OCO4 [ungerine] | increased muscle weight in fasted mice; also recorded: reduce fasting-induced muscle atrophy | – | –
